Results as given in PMC7115508 (European Journal of Medicinal Chemistry, 2011).

test system: normal human fibroblast cell HS27; conditions: not given

Compound	Cytotoxicity: concentration required to reduce proliferation of normal human fibroblast cell HS27 by 50% [µM]
O=c1cc(OCc2cc(Cl)cc(Cl)c2)oc2ccc(OCc3cccc(Cl)c3)c(O)c12 [5d, 6-(3-chloro-benzyloxy)-2-(3,5-dichloro-benzyloxy)-5-hydroxy-chromen-4-one]	>50
O=c1cc(OCc2cccc(Cl)c2)oc2ccc(OCc3cccc(Cl)c3)c(O)c12 [5b, 2,6-bis-(3-chloro-benzyloxy)-5-hydroxy-chromen-4-one]	>50
O=c1cc(OCc2ccc(Cl)cc2)oc2ccc(OCc3cccc(Cl)c3)c(O)c12 [5c, 6-(3-chloro-benzyloxy)-2-(4-chloro-benzyloxy)-5-hydroxy-chromen-4-one]	>50
O=c1cc(OCc2ccccc2)oc2ccc(OCc3cccc(Cl)c3)c(O)c12 [5a, 2-benzyloxy-6-(3-chloro-benzyloxy)-5-hydroxy-chromen-4-one]	>50
O=C(O)/C(O)=C/C(=O)c1cccc(NCc2ccc(Cl)cc2)c1 [compound 1, reference compound]	>50
N#Cc1cccc(COc2cc(=O)c3c(O)c(OCc4cccc(Cl)c4)ccc3o2)c1 [5g, 3-[6-(3-chloro-benzyloxy)-5-hydroxy-4-oxo-4H-chromen-2-yloxymethyl]-benzonitrile]	>50
O=c1c(OCc2cccc([N+](=O)[O-])c2)c(-c2ccccc2)oc2cc(O)cc(O)c12 [compound 3, reference compound]	>50
N#Cc1cccc(COc2cc(O)c3c(=O)c(O)c(-c4ccccc4)oc3c2)c1 [compound 4, reference compound]	>50
O=c1cc(OCc2cccc(I)c2)oc2ccc(OCc3cccc(Cl)c3)c(O)c12 [5e, 6-(3-chloro-benzyloxy)-5-hydroxy-2-(3-iodo-benzyloxy)-chromen-4-one]	>50
O=c1cc(OCc2ccc(I)cc2)oc2ccc(OCc3cccc(Cl)c3)c(O)c12 [5f, 6-(3-chloro-benzyloxy)-5-hydroxy-2-(4-iodo-benzyloxy)-chromen-4-one]	>50

test system: HCV RNA replication in HCV replicon cell (Huh-7 carrying the subgenomic HCV genotype 1 replicon); conditions: read-out: Antiviral Activity HCV (EC50); cited from earlier work

Compound	EC50 [µM]
O=c1c(OCc2cccc([N+](=O)[O-])c2)c(-c2ccccc2)oc2cc(O)cc(O)c12 [compound 3, reference compound]	5
N#Cc1cccc(COc2cc(O)c3c(=O)c(O)c(-c4ccccc4)oc3c2)c1 [compound 4, reference compound]	3
